# Experimental data published in patent publication US20070015733A1, “Aryl Phosphate Derivatives of d4T having Activity Against Resistant HIV Strains” (Parker Hughes Institute, priority 1998, published 2007).
# Where two headings read alike, the source gives them in different places.
# Columns and labels:
# [1] = test system: zidovudine-resistant primary clinical HIV-1 isolates; test: p24 drug susceptibility assay, NRTI-/zidovudine-resistant primary clinical HIV-1 isolates in PBMC; assay type: cell-based; conditions: Human immunodeficiency virus 1, PBMC
# Procedure: Viruses. […] The HIV-1 strains HTLVIIIB (wildtype RT, NRTI-sensitive, NNRTI-sensitive), A17 (Y181 C mutant, NNRTI-resistant), A17-variant (Y181C+K103N mutant, NNRTI-resistant), and RT-MDR (M41 L, V106N, T215Y; NRTI-resistant, NNRTI-resistant) were also obtained from the AIDS Research and Reference Reagent Program, NIAID.
# Antiviral susceptibility assays. Phenotypic drug susceptibility studies of HIV-1 isolates and strains were performed by measuring the production of the p24 gag protein in peripheral blood mononuclear cells (PBMC) from seronegative healthy volunteers in the presence of increasing concentrations of the anti-HIV agent using the quantitative Coulter HIV-1 p24 antigen ezyme immunoassay (EIA) and HIV-1 p24 Antigen Kinetic Standard (Beckman Coulter), as previously described (Uckun, 1998, Antimicrobial Agents and Chemotherapy 37(4): 835-38). Informed consent was obtained from the blood donors according to DHHS guidelines using consent forms approved by the Institutional Review Board. In brief, PBMC were cultured for 72 h in RPMI 1640 medium (Gibco) supplemented with 20% (vol/vol) heat-inactivated fetal bovine serum, 5% human interleukin-2 (Zeptometrix), 2 mM L-glutamine, 25 mM HEPES, 2 g/L NaHCO3, 100 U/ml penicillin/streptomycin (Gibco), 50 μg/ml gentamicin (Gibco), and 5 μg/ml phytohemagglutinin-P (PHA-P) (Sigma) for 24-72 hours prior to exposure to HIV at a multiplicity of infection of 0.001-0.1 during a 1-h adsorbtion period at 37±1° C. in a humidified 5-7% CO2 atmosphere. Subsequently, cells were cultured in 96-well microtiter plates (100 μl/well; 2×10^6 cells/ml, triplicate wells) in the presence of the anti-HIV agents at 6-7 different concentrations ranging from 0.0001 μM to 100 μM, and 25 μL aliquots of culture supernatants were removed from the wells on day 6 after infection for p24 EIA, as previously described (Uckun, 1998, Antimicrobial Agents and Chemotherapy, 37(4):835-38). Controls included uninfected and untreated cells (background control) and infected but untreated (virus control) cells. The p24 EIA utilizes a murine monoclonal antibody to HIV core protein used to coat microwell strips to which the antigen present in the test culture supernatant samples binds. Percent inhibition of viral replication was calculated by comparing the p24 values from the test substance-treated infected cells with p24 values from untreated infected cells (i.e., virus controls). The IC50 values were determined using the Statview statistics program (SAS Institute, Inc.). In parallel, the effects of various treatments on cell viability were also examined as previously described (Uckun, 1998, Antimicrobial Agents and Chemotherapy, 42:383-388). In brief, noninfected PBMC were treated with each compound for 5 days under identical experimental conditions. A microculture tetrazolium assay (MTA) was performed to quantitate cellular proliferation (Uckun, 1998, Antimicrobial Agents and Chemotherapy, 42:383-388).
# Phenotypic drug susceptibility studies of HIV-1 isolates and strains were performed by measuring the production of the p24 gag protein in peripheral blood mononuclear cells (PBMC) from seronegative healthy volunteers in the presence of increasing concentrations of the anti-HIV agent using the quantitative Coulter HIV-1 p24 antigen enzyme immunoassay (EIA) and HIV-1 p24 Antigen Kinetic Standard (Beckman Coulter), as previously described. StatView was used in the calculation of the IC50 values from each set of triplicate wells using the linearized form of an exponential equation (lnY=lnb0+b1X; where Y=% inhibition, X=drug concentration). The inhibition constants were log10 transformed to homogenize the variances within each group. […] P-values below 0.05 were deemed significant (JMP Software, SAS).
# [2] = test system: NRTI-resistant recombinant HIV-1 isolates; test: p24 assay, multi-NRTI-resistant recombinant HIV-1 clones; assay type: cell-based
# [3] = Pharmacokinetics after intravenous or oral administration; assay type: in vivo, mice
# [4] = test system: HIV-2 (Strain: CBL-20); test: Inhibition of HIV-2 replication in PBMNC (RT activity); assay type: cell-based; conditions: Human immunodeficiency virus 2, read-out: HIV-2 IC50 [RT]
# Procedure: (P-AZT) and with AZT. The incubation and analysis methods used were as described above for Example 3.
# Cellular Assays of Anti-HIV Activity and Cytotoxicity. […] Percent viral inhibition was calculated by comparing the RT activity values from the test substance-treated infected cells with RT values from untreated infected cells (i.e., virus controls).
smiles,measurement,setting,value
"COC(=O)C(C)NP(=O)(OC[C@@H]1C=C[C@H](n2cc(C)c(=O)[nH]c2=O)O1)Oc1ccc(Br)cc1 (stereo partly shown) [Compound 1c, d4T-5′-[p-bromo-phenylmethoxyalaninyl phosphate]]",IC50,"[1]; isolate 92BR019 (D67N, L214F, T215D, K219Q), PBMC",2 nM
same,IC50,"[1]; isolate BR/92/019, PBMC, p24",2 nM
same,IC50,"[1]; isolate C140 (M41L, M184V, T215Y), PBMC",2.5 nM
same,IC50,"[1]; isolate C140, PBMC, p24",2.5 nM
same,IC50,"[1]; isolate C467-4 (K20R, D67N, K70R, Y188L, T215F, K219Q), PBMC",42 nM
same,IC50,"[1]; isolate C467-4, PBMC, p24",42 nM
same,IC50,"[1]; isolate G190-6, PBMC, p24",2.8 nM
same,IC50,"[1]; isolate G691-2 (mutations N.D.), PBMC",5 nM
same,IC50,"[1]; isolate G704-2 (M41L, D67N, K70R, L210W, T215Y), PBMC",3.2 nM
same,IC50,"[1]; isolate G704-2, PBMC, p24",3.2 nM
same,IC50,"[1]; isolate G780-1 (M41L, D67N, K70R, T215F, K219Q), PBMC",35 nM
same,IC50,"[1]; isolate G780-1, PBMC, p24",35 nM
same,IC50,"[1]; isolate G890-1 (K20R, M41L, D67N, T69N, K70R, L210W, T215Y), PBMC",6 nM
same,IC50,"[1]; isolate G890-1, PBMC, p24",6 nM
same,IC50,"[1]; isolate G910-6 (M41L, D67N, K70R, T215Y, K219Q), PBMC",2.8 nM
same,IC50,"[1]; isolate P798-1 (M41L, T215Y), PBMC",7.5 nM
same,IC50,"[1]; isolate P798-1, PBMC, p24",7.5 nM
same,IC50,"[1]; isolate Q252-2 (M41L, L210W, T215Y), PBMC",1.9 nM
same,IC50,"[1]; isolate Q252-2, PBMC, p24",1.9 nM
same,IC50,"[1]; isolate R416-10 (M41L, T215Y), PBMC",0.2 nM
same,IC50,"[1]; isolate R416-10, PBMC, p24",0.2 nM
same,IC50,"[1]; isolate S159-2 (M41L, K103N, T215Y), PBMC",0.78 nM
same,IC50,"[1]; isolate S159-2, PBMC, p24",0.8 nM
same,IC50,"[1]; isolate S762-4 (M41L, T215Y), PBMC",8 nM
same,IC50,"[1]; isolate S762-4, PBMC, p24",8 nM
same,IC50,"[1]; isolate T156-3 (M41L, E44D, D67N, T69D, L210W, T215Y), PBMC",3.3 nM
same,IC50,"[1]; isolate T156-3, PBMC, p24",3.3 nM
same,IC50,"[1]; isolate X165-8 (D67N, T69N, K70R, K103N, Y181C, T215F, K219E), PBMC",13 nM
same,IC50,"[1]; isolate X165-8, PBMC, p24",13 nM
same,IC50,"[1]; isolate X165-9 (K20R, D67N, K103N, T215Y), PBMC",2 nM
same,IC50,"[1]; isolate X165-9, PBMC, p24",2 nM
same,IC50,"[1]; isolate X267-1 (L74V), PBMC, p24",0.2 nM
same,IC50,"[1]; isolate X267-1 (M41L, L74V, L210W, T215Y), PBMC",0.15 nM
same,IC50,"[1]; isolate X267-2 (M41L, T215Y), PBMC",0.18 nM
same,IC50,"[1]; isolate X267-2, PBMC, p24",0.2 nM
same,IC50,"[1]; isolate X267-5 (M41L, F116S, T215Y), PBMC",30 nM
same,IC50,"[1]; isolate X267-5, PBMC, p24",30 nM
same,IC50,"[1]; isolate Y270-7 (M41W, Y188L, T215N), PBMC",9 nM
same,IC50,"[1]; isolate Y270-7, PBMC, p24",9 nM
same,IC50,"[1]; primary isolate C467-4 (Y188L), Table 14",42 nM
same,IC50,"[1]; primary isolate S159-2 (K103N), Table 14",< 0.1 nM
same,IC50,"[1]; primary isolate X165-8 (K103N, Y181C), Table 14",13 nM
same,IC50,"[1]; primary isolate X165-9 (K103N), Table 14",2 nM
same,IC50,"[1]; primary isolate Y270-7 (Y188L), Table 14",9 nM
same,IC50,"[1]; read-out: IC50 (nM), Mean ± SE, All (n = 25) NRTI-resistant HIV-1 isolates, p24",13.4 ± 3.2 nM
same,IC50,"[1]; read-out: IC50 (nM), Mean ± SE, Group A (n = 19) NRTI-resistant clinical isolates",8.9 ± 2.9 nM
same,IC50,"[1]; read-out: IC50 (nM), median, All (n = 25)",6 nM
same,IC50,"[1]; read-out: IC50 (nM), median, Group A (n = 19)",3.2 nM
same,IC50,"[1]; read-out: IC50 (nM), range, All (n = 25)",0.2 to 57.9 nM
same,IC50,"[1]; read-out: IC50 (nM), range, Group A (n = 19)",0.2 to 42 nM
same,IC50,"[1]; read-out: IC50, μM, Mean ± SE, mean over 20 zidovudine-resistant primary clinical isolates",8.7 ± 2.7 nM
same,IC50,"[1]; read-out: IC50, μM, Mean ± SE, mean over the NNRTI-resistant primary isolates of Table 14",11.2 ± 6.5 nM
same,IC50,"[1]; read-out: IC50 range, range over 20 zidovudine-resistant primary clinical isolates",1 to 42 nM
same,IC50,"[1]; read-out: average IC50 value, mean over 20 zidovudine-resistant primary clinical isolates",8.7 ± 2.8 nM
same,IC50,"[1]; read-out: average IC50 value, mean over primary clinical isolates with NNRTI binding pocket mutations",11.2 ± 6.5 nM
same,IC50,"[1]; read-out: mean IC50 value, NRTI-resistant isolates with 5 thymidine analog mutations (Group 1 in Table 19)",10.7 ± 5.1 nM
same,IC50,"[1]; read-out: mean IC50 value, isolates with M184V plus multiple thymidine analog mutations (Group 2 in Table 19)",17.2 ± 13 nM
same,IC50,"[2]; Human immunodeficiency virus 1, read-out: IC50 (nM), Mean ± SE, Group B (n = 6) recombinant clones",27.6 ± 7.9 nM
same,IC50,"[2]; Human immunodeficiency virus 1, read-out: IC50 (nM), median, Group B (n = 6)",22.5 nM
same,IC50,"[2]; Human immunodeficiency virus 1, read-out: IC50 (nM), p24, recombinant clone 1617-1 (151 complex)",19.9 nM
same,IC50,"[2]; Human immunodeficiency virus 1, read-out: IC50 (nM), p24, recombinant clone 4755-5",6 nM
same,IC50,"[2]; Human immunodeficiency virus 1, read-out: IC50 (nM), p24, recombinant clone 7295-1",43 nM
same,IC50,"[2]; Human immunodeficiency virus 1, read-out: IC50 (nM), p24, recombinant clone 7324-1",13.7 nM
same,IC50,"[2]; Human immunodeficiency virus 1, read-out: IC50 (nM), p24, recombinant clone 52252-1 in Table 18, 56252-1 in Tables 19 and 20 (K65R, 151 complex)",25 nM
same,IC50,"[2]; Human immunodeficiency virus 1, read-out: IC50 (nM), p24, recombinant clone printed 52534-1 in Table 18, 52534-2 in Tables 19 and 20 (69 insertion complex)",57.9 nM
same,IC50,"[2]; Human immunodeficiency virus 1, read-out: IC50 (nM), range, Group B (n = 6)",6 to 57.9 nM
same,IC50,"[2]; Human immunodeficiency virus 1, read-out: mean IC50 value, recombinant clones with 151 complex or 69 insertion complex (Group 3+Group 4)",34.3 ± 11.9 nM
same,parent compound in blood,[3]; after oral administration,No parent d4T-5′-[p-bromophenyl methoxyalaninyl phosphate] was detectable
same,elimination half-life (t1/2) of the administered substance,[3]; intravenous administration,3.5 min
same,IC50,[4],400 nM
